25 molecules from patent US10273224B2, “Substituted pyrimidine compounds, compositions and medicinal applications thereof” (JUBILANT BIOSYS LIMITED, priority 2013, dated 2019) can be followed below.

T1 sequence (P00533 25-1210 T790M/L858R): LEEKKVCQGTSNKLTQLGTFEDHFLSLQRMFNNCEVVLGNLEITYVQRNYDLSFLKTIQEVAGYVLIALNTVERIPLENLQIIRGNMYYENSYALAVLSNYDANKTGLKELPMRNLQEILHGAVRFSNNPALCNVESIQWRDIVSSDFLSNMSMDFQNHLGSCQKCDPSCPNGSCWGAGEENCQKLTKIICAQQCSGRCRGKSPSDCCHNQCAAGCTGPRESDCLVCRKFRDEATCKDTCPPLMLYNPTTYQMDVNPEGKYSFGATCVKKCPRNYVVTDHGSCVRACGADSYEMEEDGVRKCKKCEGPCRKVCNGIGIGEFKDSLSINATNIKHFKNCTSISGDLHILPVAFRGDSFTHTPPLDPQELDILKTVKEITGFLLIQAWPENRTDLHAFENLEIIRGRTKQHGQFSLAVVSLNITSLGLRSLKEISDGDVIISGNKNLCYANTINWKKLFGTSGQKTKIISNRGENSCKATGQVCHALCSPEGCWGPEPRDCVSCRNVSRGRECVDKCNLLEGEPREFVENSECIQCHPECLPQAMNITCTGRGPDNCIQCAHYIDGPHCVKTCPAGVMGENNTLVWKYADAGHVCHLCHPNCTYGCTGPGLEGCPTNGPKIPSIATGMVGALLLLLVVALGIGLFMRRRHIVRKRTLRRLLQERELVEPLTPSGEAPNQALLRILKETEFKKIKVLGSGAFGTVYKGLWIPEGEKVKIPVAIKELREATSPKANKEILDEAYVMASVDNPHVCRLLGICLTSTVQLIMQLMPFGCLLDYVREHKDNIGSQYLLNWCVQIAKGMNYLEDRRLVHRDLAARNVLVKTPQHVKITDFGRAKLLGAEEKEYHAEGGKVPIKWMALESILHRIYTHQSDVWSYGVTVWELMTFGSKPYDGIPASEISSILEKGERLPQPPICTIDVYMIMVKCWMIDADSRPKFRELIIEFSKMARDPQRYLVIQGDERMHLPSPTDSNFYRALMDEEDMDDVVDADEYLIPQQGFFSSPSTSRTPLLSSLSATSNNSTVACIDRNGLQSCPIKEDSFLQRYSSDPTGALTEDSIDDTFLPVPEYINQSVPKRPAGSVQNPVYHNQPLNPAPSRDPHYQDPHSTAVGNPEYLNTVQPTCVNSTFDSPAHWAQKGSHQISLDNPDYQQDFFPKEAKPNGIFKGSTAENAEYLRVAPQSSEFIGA

This test addresses T1, EGFR (L858R & T790M) (Homo sapiens, UniProt P00533, L858R/T790M).
T1 construct: GST; purchased Proqinase
The experiment in a line: EGFR (L858R & T790M) inhibition assay, HTRF method. Particulars: biochemical HTRF; EGFR (T790M/L858R) 2.5 nM, ATP 5 μM, 60 min room temperature. How it is done: Example 25: Biological Activity: EGFR T790M Assay Protocol
The objective of the experiment is to find the IC50 for the compounds using HTRF method.
Reagents for Enzyme Assay:
1. Enzyme Assay Buffer: 60 mM HEPES (pH 7.4), 50 mM NaCl, 20 mM MgCl2, 5 mM MnCl2, filter using 0.2 µm pore size, store at 4° C.
Supplements (add fresh to the enzyme buffer): Make 1M DTT stock, 5% BSA stock and 0.1M Na3OV4 stored at 4° C. Enzyme assay buffer 50 ml, 1 M DTT 100 μl, 5% BSA 500 μl, 0.1M Na3OV4 50 μl.
2. GST-hEGFR (L858R), active: EGFR (T790M/L858R), active (Proqinase), 3.6 μM stock; 2.5 nM in final assay.
3. Gastrin Precusor-Biotinylated: Gastrin precursor (Tyr87) biotinylated peptide (EEAY*GWM), Cell Signaling Tech 1310, Lot-7, Want final 0.5 μM in assay
4. ATP: 10 mM stock in 100 μl Enzyme assay buffer pH 7.4 prepared freshly, want 5 μM in final assay.
5. Test compounds: Dissolve powders in 100% DMSO to a final stock concentration of 10 mM (volume in μL to add for 10 mM=mg powder×10^5/MW). Final comp concentration in the assay plate is starting at 10 μM.
1. HTRF buffer: 50 mM Tris-HCl, pH-7.5, 100 mM NaCl, 0.1% BSA, 0.05% Tween20, 0.5 mM EDTA, filter using 0.2 µm pore size, store at 4° C.
Phycolink® Streptavidin-Allophycocyanin (SA-APC) Prozyme, Cat. #PJ25S, Lot #896 085, 2.06 mg/mL, APC concentration is 11.6 μM, streptavidin concentration is 15.5 μM. Want 12 nM final in assay (based on streptavidin concentration).
2. Europium-W1024-PT-66 Anti Phospho Tyrosine Antibody: Perkin Elmer (AD0068), monoclonal IgG1 that recognizes phospho tyrosine peptide 100 μg/ml stock. Want 0.1 nM final in assay.
• 1. Make the compound dilution by TECAN as per the above scheme. • 2. Add 16 μl of diluted compound to the assay plate by using TECAN • 3. Add 10 μl of enzyme mix to each well except mins. • 4. Add 20 μl of substrate and ATP mix into each well of the assay plate manually. • 5. Incubate the plate at room temperature for 60 min with shaking. • 6. Meanwhile prepare the HTRF mix and add 75 μl to the HTRF plate. • 7. When the incubation is over, transfer 10 μl of the reaction mixture to the HTRF assay plate and incubate for 30 min at room temperature with shaking. • 8. Take the reading in Pherastar (ext 337 nm, em 665 & 620 nm). • 9. Analyze the results using Graphpad prism after calculation the z factor, signal window and % inhibition to get the IC50.
Compounds having IC50<10 nM are designated as “A”; 10-100 nM are designated as “B”; and >100 nM as “C”.
For orientation: TR-FRET usually uses a lanthanide donor and a delayed reading to cut background.
For orientation: IC50 means the concentration that inhibits the measured activity by half. `C=CC(=O)N1CCC(Nc2nc(Nc3cnn(C)c3)ncc2Cl)C1` (racemic) [II-7 (Racemic), 1-(3-((5-chloro-2-((1-methyl-1H-pyrazol-4-yl)amino)pyrimidin-4-yl)amino)pyrrolidin-1-yl)prop-2-en-1-one]: the IC50 was more than 100 nM.

Regarding `C=CC(=O)Nc1ccc(F)c(Nc2nc(Nc3cn(C)nc3C)ncc2Cl)c1` (single isomer, unassigned) [Compound I-70, N-(3-((5-chloro-2-((1,3-dimethyl-1H-pyrazol-4-yl)amino)pyrimidin-4-yl)amino)-4-fluorophenyl)acrylamide], the half-maximal inhibitory concentration (IC50) is less than 10 nM.

On to `C=CC(=O)Nc1cccc(Nc2nc(Nc3cn(C)nc3C)ncc2Cl)n1` (single isomer, unassigned) [Compound I-73, N-(6-((5-chloro-2-((1,3-dimethyl-1H-pyrazol-4-yl)amino)pyrimidin-4-yl)amino)pyridin-2-yl)acrylamide], for which the IC50 fell in the range of 10 to 100 nM.

Regarding `C=CC(=O)Nc1cccc(Nc2nc(Nc3cnn(C)c3C)ncc2Cl)n1` (single isomer, unassigned) [Compound I-74, N-(6-((5-chloro-2-((1,5-dimethyl-1H-pyrazol-4-yl)amino)pyrimidin-4-yl)amino)pyridin-2-yl)acrylamide], the IC50 was more than 100 nM.

Take `C=CC(=O)NC1CCCC(Oc2nc(Nc3cnn(C)c3)ncc2Cl)C1` (single isomer, unassigned) [I-88 (Isomer 1), N-(3-((5-chloro-2-((1-methyl-1H-pyrazol-4-yl)amino)pyrimidin-4-yl)oxy)cyclohexyl)acrylamide]: the IC50 is more than 100 nM.

In the case of `C=CC(=O)NC1CCCC(Oc2nc(Nc3cnn(C)c3)ncc2Cl)C1` (single isomer, unassigned) [I-89 (Isomer 2), N-(3-((5-chloro-2-((1-methyl-1H-pyrazol-4-yl)amino)pyrimidin-4-yl)oxy)cyclohexyl)acrylamide], the IC50 is more than 100 nM.

As for `CN(C)C/C=C/C(=O)NC1CCCC(Oc2nc(Nc3cnn(C)c3)ncc2Cl)C1` (single isomer, unassigned) [I-90 (Isomer 1), (E)-N-(3-((5-chloro-2-((1-methyl-1H-pyrazol-4-yl)amino)pyrimidin-4-yl)oxy)cyclohexyl)-4-(dimethylamino)but-2-enamide], the IC50 is more than 100 nM.

`CN(C)C/C=C/C(=O)NC1CCCC(Oc2nc(Nc3cnn(C)c3)ncc2Cl)C1` (single isomer, unassigned) [I-91 (Isomer 2), (E)-N-(3-((5-chloro-2-((1-methyl-1H-pyrazol-4-yl)amino)pyrimidin-4-yl)oxy)cyclohexyl)-4-(dimethylamino)but-2-enamide]: the half-inhibitory concentration (IC50) is more than 100 nM.

For the molecule `CN(C)C/C=C/C(=O)N[C@@H]1CCC[C@@H](CNc2nc(Nc3cnn(C)c3)ncc2Cl)C1` (single isomer, unassigned) [I-102 (diastereomer 1)], the 50% inhibitory concentration (IC50) is more than 100 nM.

In the case of `CN(C)C/C=C/C(=O)N[C@H]1CCC[C@H](CNc2nc(Nc3cnn(C)c3)ncc2Cl)C1` (single isomer, unassigned) [I-103 (diastereomer 2)], the IC50 is more than 100 nM.

In the case of `C=CC(=O)N[C@H]1CCC[C@@H](Nc2nc(Nc3cnn(C)c3)ncc2Cl)C1` (single isomer, unassigned) [I-104 (Enantiomer 3)], the IC50 fell in the range of 10 to 100 nM.

In the case of `C=CC(=O)N[C@@H]1CCC[C@H](Nc2nc(Nc3cnn(C)c3)ncc2Cl)C1` (single isomer, unassigned) [I-105 (Enantiomer 4)], the IC50 was more than 100 nM.

On to `C=CC(=O)N[C@@H]1CCC[C@@H](Nc2nc(Nc3cnn(C)c3)ncc2Cl)C1` (single isomer, unassigned) [I-106 (Enantiomer 1)], for which the IC50 was more than 100 nM.

Take `C=CC(=O)N[C@H]1CCC[C@H](Nc2nc(Nc3cnn(C)c3)ncc2Cl)C1` (single isomer, unassigned) [I-107 (Enantiomer 2)]: the IC50 was more than 100 nM.

For the molecule `C=CC(=O)N[C@H]1CCCC[C@@H](Nc2nc(Nc3cnn(C)c3)ncc2Cl)C1` (single isomer, unassigned) [I-112 (Isomer 1)], the half-inhibitory concentration (IC50) is more than 100 nM.

As to `C=CC(=O)N[C@@H]1CCCC[C@H](Nc2nc(Nc3cnn(C)c3)ncc2Cl)C1` (single isomer, unassigned) [I-113 (Isomer 2)], the 50% inhibitory concentration (IC50) lay within 10 to 100 nM.

Turning to `C=CC(=O)N1CCCC(Nc2nc(Nc3cnn(C)c3)ncc2Cl)C1` (single isomer, unassigned) [II-1 (Enantiomer 1), 1-(3-((5-chloro-2-((1-methyl-1H-pyrazol-4-yl)amino)pyrimidin-4-yl)amino)piperidin-1-yl)prop-2-en-1-one], the IC50 was more than 100 nM.

As to `C=CC(=O)N1CCCC(Nc2nc(Nc3cnn(C)c3)ncc2Cl)C1` (single isomer, unassigned) [II-2 (Enantiomer 2), 1-(3-((5-chloro-2-((1-methyl-1H-pyrazol-4-yl)amino)pyrimidin-4-yl)amino)piperidin-1-yl)prop-2-en-1-one], the IC50 is more than 100 nM.

For the molecule `CN(C)C/C=C/C(=O)N1CCCC(Nc2nc(Nc3cnn(C)c3)ncc2Cl)C1` (single isomer, unassigned) [II-3 (Enantiomer 1), (E)-1-(3-((5-chloro-2-((1-methyl-1H-pyrazol-4-yl)amino)pyrimidin-4-yl)amino)piperidin-1-yl)-4-(dimethylamino)but-2-en-1-one], the half-maximal inhibitory concentration (IC50) was more than 100 nM.

With `CN(C)C/C=C/C(=O)N1CCCC(Nc2nc(Nc3cnn(C)c3)ncc2Cl)C1` (single isomer, unassigned) [II-4 (Enantiomer 2), (E)-1-(3-((5-chloro-2-((1-methyl-1H-pyrazol-4-yl)amino)pyrimidin-4-yl)amino)piperidin-1-yl)-4-(dimethylamino)but-2-en-1-one], the IC50 is more than 100 nM.

On to `C=CC(=O)N1CCCC(Nc2nc(Nc3cnn(C4CCC4)c3)ncc2Cl)C1` (single isomer, unassigned) [II-5 (Enantiomer 1), 1-(3-((5-chloro-2-((1-cyclobutyl-1H-pyrazol-4-yl)amino)pyrimidin-4-yl)amino)piperidin-1-yl)prop-2-en-1-one], for which the concentration for half-maximal inhibition (IC50) was more than 100 nM.

On to `C=CC(=O)N1CCCC(Nc2nc(Nc3cnn(C4CCC4)c3)ncc2Cl)C1` (single isomer, unassigned) [II-6 (Enantiomer 2), 1-(3-((5-chloro-2-((1-cyclobutyl-1H-pyrazol-4-yl)amino)pyrimidin-4-yl)amino)piperidin-1-yl)prop-2-en-1-one], for which the 50% inhibitory concentration (IC50) is more than 100 nM.

For `C=CC(=O)N1CCC(Oc2nc(Nc3cnn(C)c3)ncc2Cl)C1` (single isomer, unassigned) [II-10 (Enantiomer 1), 1-(3-((5-chloro-2-((1-methyl-1H-pyrazol-4-yl)amino)pyrimidin-4-yl)oxy)pyrrolidin-1-yl)prop-2-en-1-one], the concentration for half-maximal inhibition (IC50) is more than 100 nM.

On to `C=CC(=O)N1CCC(Oc2nc(Nc3cnn(C)c3)ncc2Cl)C1` (single isomer, unassigned) [II-11 (Enantiomer 2), 1-(3-((5-chloro-2-((1-methyl-1H-pyrazol-4-yl)amino)pyrimidin-4-yl)oxy)pyrrolidin-1-yl)prop-2-en-1-one], for which the IC50 was more than 100 nM.

Take `C=CC(=O)N1CCCC(Oc2nc(Nc3cnn(C)c3)ncc2Cl)C1` (single isomer, unassigned) [II-12 (Enantiomer 1), 1-(3-((5-chloro-2-((1-methyl-1H-pyrazol-4-yl)amino)pyrimidin-4-yl)oxy)piperidin-1-yl)prop-2-en-1-one]: the 50% inhibitory concentration (IC50) was more than 100 nM.
